Molecules are shown by their SMILES.

In series [1] the test system is β-glucuronidase in rat colon feces. In words: Rat colon fecal homogenate stability assay. It counts as in vitro ADME. Conditions: male, Sprague Dawley, rat colon fecal supernatant-homogenate; in vitro half-life of the prodrug in rat fecal supernatant-homogenate, anaerobic, 10 μM substrate; read-out: T½. The text has this: The compounds of the present invention contain a glucuronide prodrug moiety that is expected to be cleaved by β-glucuronidase enzyme to release a JAK inhibitor (e.g., ruxolitinib, baricitinib or oclacitinib). The objective of this assay was to determine the half-life for compounds of the present invention in the presence of β-glucuronidase in rat colon feces. Following sacrifice of a naïve male Sprague Dawley rat (˜300 g) by cardiac puncture exsanguination, the colon was ligated and removed to an anaerobic chamber (AS-580, Anaerobe Systems). The fecal content was removed within the chamber and was diluted 1:10 with phosphate buffer (1 gram fecal content to 9 mL phosphate buffer) and the resulting mixture was homogenized using a handheld Omni Tissue Master. The fecal homogenate was centrifuged at 2000 g for 10 min to remove bulk material and the supernatant was removed and used for the incubations. DMSO stock solutions (10 mM) of the test compounds and sulfasalazine (control) were prepared. Sulfasalazine was used as a positive control to confirm viability of the fecal supernatant-homogenate (see, e.g., Azad Khan et al., Clinical Science (1983) 64, 349-354). If the in vitro half-life (T½) for sulfasalazine in the fecal sample was less than 30 min, the fecal sample was deemed to be viable and in true anaerobic conditions. However, if the T½ for sulfasalazine was greater than 30 min, the fecal sample was typically contaminated with oxygen and was not viable. The final substrate concentration of each assay was 10 μM. Reactions were started by adding a 5 μL aliquot of diluted test compound stock solution into 300 μL of rat fecal supernatant-homogenate. At 0, 15, 50, 85 and 120 min post reaction initiation, a 50 μL aliquot was removed and added to a mixture of 200 μL of acetonitrile with 3% formic acid and an internal standard. All samples were centrifuged at 2000 g for 10 min after which 50 μL of supernatant was diluted into 150 μL of water for analysis on an LC-MS system. In vitro half-lives (T½) for the test compounds were calculated as follows: T½=0.693/elimination rate constant.

The nature of series [2]: Oral pharmacokinetics in mouse assay. It counts as in vivo. Conditions: liberated JAK inhibitor in colon tissue, AUC0-6 h, single PO dose 5 mg/kg of prodrug, male Balb/c mice. As for the experimental part: When cleaved by β-glucuronidase enzyme, the compounds of the present invention release a JAK inhibitor (e.g., ruxolitinib, baricitinib or oclacitinib). The object of this assay was to determine JAK inhibitor exposure (AUC0-6 h) in colon tissue and plasma following oral dosing of compounds of the present invention in mice. Male Balb/c mice (n=2/time point) received a single PO oral gavage dose (5 mg/kg in 1:20 mixture of 5% DMSO and 1% HPMC) of the test compound. At 0.5, 2, 6 and 24 h post-dosing, mice were sacrificed via cardiac puncture exsanguination and blood samples were taken and placed into sample tubes (Microtainer, Becton, Dickinson and Company) containing sodium fluoride and then placed on ice. Plasma was obtained by centrifugation (Eppendorf centrifuge, 5804R) for 4 min at approximately 12,000 rpm at 4° C. The colons were removed from the exsanguinated mice and the colon fecal contents were gently removed. The colons were flushed with saline and patted dry. The colons were then homogenized in 3× volume of sterile water using a tissue homogenizer (Precellys homogenizer, Bertin Instruments) at approximately 4° C. All samples were stored at −80° C. for later bioanalysis. The concentration of JAK inhibitor (e.g., ruxolitinib, baricitinib or oclacitinib) in each sample was determined as follows: the plasma and colon homogenate samples were vortexed, combined with a 50 μL aliquot of rat plasma, extracted with 200 μL of ACN containing an internal standard and quantified against the internal standard by LC-MS. An area-under-the-concentration curve (AUC0-6 h) was calculated for plasma and colon test compound and liberated JAK inhibitor. A key parameter to assess suitability for localized delivery of the JAK inhibitor to the colon was the JAK inhibitor colon to plasma AUC ratio.

`CNS(=O)(=O)C[C@H]1CC[C@H](N(C)c2ncnc3c2ccn3C(=O)N(C)CCN(C)C(=O)OCc2ccc(O[C@@H]3O[C@H](C(=O)O)[C@@H](O)[C@H](O)[C@H]3O)c([N+](=O)[O-])c2)CC1` [Compound VII-3, (2S,3S,4S,5R,6S)-3,4,5-Trihydroxy-6-(4-(((methyl(2-(N-methyl-4-(methyl((1r,4r)-4-((N-methylsulfamoyl)methyl)cyclohexyl)amino)-7H-pyrrolo[2,3-d]pyrimidine-7-carboxamido)ethyl)carbamoyl)oxy)methyl)-2-nitrophenoxy)tetrahydro-2H-pyran-2-carboxylic Acid]: the half-life at 10 μM in series [1] is below 5 min. Further, the “Colon AUC” value in series [2] was determined as 13.5 µg·h/g.
In the same order, the values of `CN(CCN(C)C(=O)n1ccc2c(-c3cnn([C@H](CC#N)C4CCCC4)c3)ncnc21)C(=O)OCc1ccc(O[C@@H]2O[C@H](C(=O)O)[C@@H](O)[C@H](O)[C@H]2O)c([N+](=O)[O-])c1` [Compound VII-1, (2S,3S,4S,5R,6S)-6-(4-((((2-(4-(1-((R)-2-Cyano-1-cyclopentylethyl)-1H-pyrazol-4-yl)-N-methyl-7H-pyrrolo[2,3-d]pyrimidine-7-carboxamido)ethyl)-(methyl)carbamoyl)oxy)methyl)-2-nitrophenoxy)-3,4,5-trihydroxytetrahydro-2H-pyran-2-carboxylic Acid] are below 5 min and 7.4 µg·h/g.
As for `CCS(=O)(=O)N1CC(CC#N)(n2cc(-c3ncnc4c3ccn4C(=O)N(C)CCN(C)C(=O)OCc3ccc(O[C@@H]4O[C@H](C(=O)O)[C@@H](O)[C@H](O)[C@H]4O)c([N+](=O)[O-])c3)cn2)C1` [Compound VII-2, (2S,3S,4S,5R,6S)-6-(4-((((2-(4-(1-(3-(Cyanomethyl)-1-(ethylsulfonyl)azetidin-3-yl)-1H-pyrazol-4-yl)-N-methyl-7H-pyrrolo[2,3-d]pyrimidine-7-carboxamido)ethyl)-(methyl)carbamoyl)oxy)methyl)-2-nitrophenoxy)-3,4,5-trihydroxytetrahydro-2H-pyran-2-carboxylic Acid], in series [1], the half-life at 10 μM is below 5 min. Moreover, the “Colon AUC” value in series [2] was determined as 17.3 µg·h/g.

The record behind these values is patent US10745405B2, “Glucuronide prodrugs of Janus kinase inhibitors” (THERAVANCE BIOPHARMA R&D IP, LLC, priority 2017, dated 2020).
